Results on two compounds are retold here after patent US11879137B2, “Treatment of type 1 diabetes and autoimmune diseases or disorders” (THE CHILDREN'S MEDICAL CENTER CORPORATION, priority 2017, dated 2024).

The subject of one data set is peripheral CD34+ cells. The settings on record: after mobilization. The protocol:
Data are expressed as mean±standard error of the mean (SEM). Data are representative of at least two independent experiments. *P<0.05; **P<0.01; ***P<0.001. #P<0.05 vs. all
The effect of overcoming PD-L1 deficiency in human HSPCs was tested by using the same agents described herein above (e.g., tested in NOD mice). […] To study the ex vivo immunoregulatory functions of pCD34+, CD34-depleted PBMCs were co-cultured with unmodulated CD34+ or pCD34+ in the presence of insulin-associated autoantigen-2 (I-A2), and the number of IFN-γ-producing cells was quantified in an ELISPOT assay. […] Finally, the effect of plerixafor-mediated mobilization, used in clinic (5, 9), was analyzed on PD-L1 expression in CD34+ cells obtained from 5 T1D patients and 8 healthy controls (Table 10).

Data set [1] concerns NEU1, MTOR, MYC, IGF1R, VEGFA, RB1 in MDA-MB-231 cells. Kind of data set: mRNA of validated miRNA target genes (transfection control) in MDA-MB-231 cells. In kind it is cell-based, human. Conditions: VEGFA or RB1 as named for each agent, 48 h after transfection. How it is done:
(§1) MDA-MB-231 breast cancer cells were cultured in DMEM high glucose medium (Gibco, Thermo Fisher Scientific; Waltham, MA USA) supplemented with 10% heat-inactivated fetal calf serum (Gibco, Thermo Fisher Scientific), 100 units/ml penicillin, 100 μg/ml streptomycin, and 2 mM L-glutamine. 2×10^5 cells were seeded in each well of a 6-well plate and transfected with 10 pmol of the miRNA mimic or miRNA mimic negative control, or 100 pmol of the anti-miR or anti-miR negative control (all from Exiqon, Qiagen) using the Lipofectamine RNAiMAX transfection reagent (Invitrogen, Thermo Fisher Scientific) in a final culture medium volume of 2 ml, following manufacturer's instructions. […] Forty-eight hours after transfection, cells were collected from each well for RNA extraction, cell lysate preparation and FACS analysis. RNA was extracted using Direct-zol RNA miniprep plus (Zymo research, Irvine, CA, USA) and RNA quality was checked and then retro-transcribed using RETROscript® Kit (Fisher Scientific) following manufacturer's instructions. Cell lysates were obtained in RIPA buffer (50 mmol/1 Tris-HCl, pH 8.0, 1% Triton-x, 0.5% sodium deoxycholate, 0.1% SDS, 150 mmol/1 sodium chloride) with protease inhibitor cocktail (Roche).
qRT-PCR for PD-L1 analysis was performed on retro-transcribed cDNA using SYBR® Green dye (Life Technologies, Thermo Fisher Scientific). Amplification was performed on a QuantStudio S6 Real Time PCR system (Thermo Fisher Scientific). To confirm a successful transfection, the mRNA level of genes known to be controlled by the targeted miRNAs were evaluated by SYBR® Green dye (Life Technologies, Thermo Fisher Scientific) according to the manufacturer's instructions. Normalized expression values were determined using the ΔΔCt method in treated as compared to negative treated samples, using GAPDH mRNA as endogenous reference. The miRNA-targeted genes tested, along with forward and reverse primer sequences used for their amplification, are listed in Table 13.
To determine if targeting the miRNA network decreases PD-L1 expression in human cancer setting, PD-L1-expressing MDA-MB-231 human breast cancer cells were transfected with a set of miRNA mimics or anti-miRs to either increase or decrease the function of a set of miRNAs not previously known to affect PD-L1 (miR-125b, miR-99a, miR-744, mir-599, miR-511, miR-206, miR-26b). The effect of treatment with miRNA mimics and anti-miRs on the percentage of PD-L1-expressing cells, as well as on PD-L1 mRNA and protein levels, was investigated. miRNA mimic/anti-miR treated-cells were compared to corresponding mimic/anti-miR negative control-treated cells by flow cytometric analysis, Real Time PCR and western blot to assess percentage of PD-L1-expressing cells, PD-L1 mRNA, and PD-L1 protein levels, respectively. A successful miRNA mimic/anti-miR transfection was confirmed by the detection of changed mRNA levels of the validated miRNA targets NEU1 (for miR-125b mimic), MTOR (for miR-99a mimic), MYC (for miR-744 mimic and miR-599 anti-miR), IGF1R (for miR-511 mimic), VEGFA (for miR-206 anti-miR) and RB1 (for miR-26b anti-miR) in treated cells (FIG. 22A). […] Lysates of miR-511 mimic and miR-206 anti-miR treated cells were not available for western blot analysis.

Data set [2] relates to PD-L1 in MDA-MB-231 cells. Kind of data set: PD-L1 protein by western blot in transfected MDA-MB-231 cells. Conditions: vs corresponding negative control; 48 h. In kind it is cell-based, human. The protocol:
as §1, with “Cell lysates were obtained in RIPA buffer (50 mmol/1 Tris-HCl, pH 8.0, 1% Triton-x, 0.5% sodium deoxycholate, 0.1% SDS, 150 mmol/1 sodium chloride) with protease inhibitor cocktail (Roche).” left out
Protein concentration in MDA-MB-231 cell lysates was measured. […] Finally, for the quantification of western blot, images of PVDF membranes were analyzed by ImageJ software to quantify size and strength of protein bands. […]
Background: A western blot detects proteins with antibodies after separation by electrophoresis.

Read-outs that look alike come from different tables or passages of the source.

`c1cc(CN2CCCNCCNCCCNCC2)ccc1CN1CCCNCCNCCCNCC1` [plerixafor]: the entries for the “percentage of CD34+PD-L1+ cells” value in the data set with peripheral CD34+ cells (T1D patients) and in the data set with peripheral CD34+ cells (healthy controls) were “remained stable” and “decreased”, respectively. Also, in the data set with peripheral CD34+ cells (5 T1D patients and 8 healthy controls), the “percentage and absolute number of CD34+ cells” value is recorded as “significantly increased”.
Turning to “miR-599 anti-miR: Anti-miR, GUUUGAUAAACUGACACAAC, SEQ ID NO: 6 (listed as RNA, chemistry not given here)”, the “mRNA levels of the validated miRNA target” value in data set [1] is “changed”. Also, in data set [2], the PD-L1 protein levels result is listed as “increase”.
